In US20260325464A1, “COMPOSITIONS FOR MODULATING THE EXPRESSION OF AQUAPORINS IN NEURODEGENERATIVE DISORDERS” (priority 2023, published 2026):
Marks after values point to notes of the source that are not given here.

Tests used:
Assay type in all cases: in vivo, rat
Parkinson's disease [1] = test: Y-maze test in rats with reserpine-induced Parkinson's disease; details: 25 mg/kg, p.o. + Reserpine (4 mg/kg, s.c.); Y maze; Mean ± SEM, n = 6
Source text: (§1) The induction of Parkinson's disease and measurement of other parameters were done as per the reported protocol (Santos et al., Cognitive, motor and tyrosine hydroxylase temporal impairment in a model of parkinsonism induced by reserpine. Behav Brain Res. 2013; 253:68-77 and Shishehbore et al. A novel kinetic spectrophotometric method for the determination of dopamine in biological and pharmaceutical samples. J Chem. 2013; 2013:1-6). Induction of Parkinson's disease was done by administering Resperine, which inhibits the monoamine vesicular transporters, thus decreasing the levels of monoamine neurotransmitters in the brain. Following pretreatment for 14 days with Gingerenone A, the rat groups received subcutaneous injections of reserpine (4 mg/kg) for the final five days of the treatment regimen. Resperine (5 mg) was dissolved in 1 ml of 1% acetic acid and then diluted tenfold with distilled water to achieve a final concentration of 500 μg/ml. The normal control group received saline with 1% acetic acid […], administered from day 10 to day 14. Thirty minutes following the administration of reserpine on the 14th day, behavioural assessments were conducted using the Open Field test, Y Maze, and Catalepsy tests to evaluate changes. Rats administered with Carbidopa, a known drug for the management of Parkinson's disease was also used for comparison. Upon completion of the study, brains were harvested for biochemical analyses and histopathological studies. The experimental group is depicted in table 10.
Y-maze test—In the Y-maze test, spontaneous alterations serve as an indicator of working short-term memory.
The maze consisted of a triangular central area with three equilateral arms labeled A, B, and C, each measuring 35 cm in length, 25 cm in height, and 10 cm in width. During the test, each rat was placed in the central area, facing one of the arms. An entry was scored when all four paws of the rat entered an arm. Spontaneous alterations in behavior were defined as consecutive entries into different arms (e.g., ABC, BCA, or CAB, but not CAC). The maximum number of spontaneous alterations ([…]) and the percentage of spontaneous alterations (actual number of alterations divided by the maximum alterations, multiplied by 100) were calculated for each rat (Kraeuter et al., The Y-Maze for Assessment of Spatial Working and Reference Memory in Mice. Methods Mol Biol. 2019; 1916:105-111).

Parkinson's disease [2] = test: Catalepsy test in rats with reserpine-induced Parkinson's disease; set-up: catalepsy score at 30 min / catalepsy score at 60 min / catalepsy score at 120 min: unit not given here; details: 25 mg/kg, p.o. + Reserpine (4 mg/kg, s.c.), Mean ± SEM, n = 6
Source text: as §1
NeuroMol Med. 202022(2):314-330. Catalepsy in rats' manifests as an unresponsiveness to external stimuli accompanied by muscle rigidity. During the catalepsy test, rats were positioned on a wooden bar elevated 3-9 cm above the surface, with their forelimbs resting on it after administration of reserpine. The time taken for the rats to correct their posture was recorded as an indicator of catalepsy. Catalepsy ceased either when the rats climbed up the bar or when their forelimbs touched the floor. Observations were made at 30, 60, and 120 minutes after administration. All assessments were conducted in a quiet environment at a temperature of 23-25 degrees Celsius, with a maximum observation time of 5 minutes per trial.

Parkinson's disease [3] = test: Open field test in rats with reserpine-induced Parkinson's disease; details: 25 mg/kg, p.o. + Reserpine (4 mg/kg, s.c.); open field; Mean ± SEM, n = 6
Source text: as §1
Open filed test—The test was conducted as per protocol described by Saleem et al., Pharmacological Potential of the Standardized Methanolic Extract of Prunus armeniaca L. in the Haloperidol-Induced Parkinsonism Rat Model. Evid Based Complement Alternat Med. 2022:29; 3697522. doi: 10.1155/2022/3697522. This test was conducted to assess the locomotor and exploratory behaviors of the experimental rats. A square-shaped wooden box measuring 100 cm in width, 100 cm in […], and 45 cm in height was constructed using plywood material, painted white, with a black-lined floor divided into 25 blocks. The rats were placed in the center of the field for a duration of 5 minutes and allowed to explore the box freely. The number of squares crossed, both centrally and horizontally, along with the total number of crossings, instances of defecation, freezing behavior, and postures were recorded during this period. Normal animals readily and quickly acclimate to the chamber and try to explore the center area of the squares.

Alzheimer's disease [4] = test: Morris water maze (MWM) test in rats with AlCl3-induced Alzheimer's disease; details: 5 mg/kg, p.o. + AlCl3 (100 mg/kg, i.p.); MWM at 17th day; Mean ± SEM, n = 6
Description: Morris water maze (MWM)—This test was performed as per protocol established by Ishola et al., Protective role of Spondiasmombin leaf and Cola acuminata seed extracts against scopolamine-induced cognitive dysfunction. Alexandria J Med. 2018; 54(1):27-39. MWM is a round water tank “diameter: 110 cm and height: 60 cm” consisting of a white surface and that is filled using opaque water (Temp. 26±2° C.) to a distance (depth) of 30 cm. The MWM tank circle is divided into 4 equal quadrants [North Quadrant 1, East Quadrant 2, West Quadrant 3, and South Quadrant 4]. Further, it consists of a 10 cm diameter platform in a constant position. Index of memory improvement is measured by the Escape Latency Time (ELT)—which is the time the animal takes to find the platform.
The MWM plays an important role in the testing of learning and memory in rodent models of Alzheimer's Disease. It is used to test hippocampal-dependent learning, including acquisition of spatial memory and long-term spatial memory (Bromley-Brits et al., Morris water maze test for learning and memory deficits in Alzheimer's disease model mice, J Vis Exp., 2011 Jul. 20:(53):2920). In this study, learning was impaired in the Alzheimer's group.

IL-1β = test: Inflammatory marker IL-1β (ELISA), AlCl3 Alzheimer's model; details: 5 mg/kg, p.o. + AlCl3 (100 mg/kg, i.p.); n = 6
Source text: (§2) The inflammatory markers Fibrinogen, IL-1β were estimated using ELISA kit (Krishgen Biosystems, India).

Fibrinogen = test: Inflammatory marker fibrinogen (ELISA), AlCl3 Alzheimer's model; details: 5 mg/kg, p.o. + AlCl3 (100 mg/kg, i.p.); Mean ± SEM, n = 6
Source text: as §2

Alzheimer's disease [5] = test: Elevated plus maze (EPM) test in rats with AlCl3-induced Alzheimer's disease; details: 5 mg/kg, p.o. + AlCl3 (100 mg/kg, i.p.), Mean ± SEM, n = 6
Description: Elevated plus maze (EPM)—Elevated plus maze (EPM)—This test was performed as per reported protocol (Bhuvanendran et al., Amelioration of cognitive deficit by Embelin in a Scopolamine-induced Alzheimer's disease-like condition in a rat model. Front Pharmacol. 2018:9(6):1-12 and Biradar et al., (2020) Experimental validation and network pharmacology evaluation to decipher the mechanism of action of Erythrina variegata L. bark against scopolamine-induced memory impairment in rats. Adv Tradit Med. 2020:26:1-4). EPM contains 2 closed and 2 open arms (four arms; equal dimensions of 50×10 cm). These 4 arms connect at central with a 10×10 cm square gap as an initial point. The transfer latency (TL) was recorded via stopwatch by keeping rats independently toward one side of the open arm. The EPM TL cut-off was set to 60 s throughout the study. […] Index of memory improvement is measured as a drop of transfer Latency (TL) by test drug.
The elevated plus maze is a test that is widely used to assess the anti-anxiety effects of test substances. As the test measures open arm activity, an increase in open arm activity (duration and/or entries) reflects anti-anxiety behaviour (Walf et al., The use of the elevated plus maze as an assay of anxiety-related behavior in rodents, Nat Protoc. 2007; 2(2): 322-328). In the present study, inducing Alzheimer's in the animals increased their anxiety which was reduced by the administration on Gingerenone A (Table 3).

β-amyloid (1-42) = β-amyloid (1-42) level in plasma (ELISA), AlCl3 Alzheimer's model; details: 5 mg/kg, p.o. + AlCl3 (100 mg/kg, i.p.); plasma; Mean ± SEM, n = 6
Source text: (§3) The levels of Tau, β-amyloid (1-42) and Apolipoprotein E were estimated. using ELISA kit (Krishgen Biosystems, India). All the protein biomarkers of AD were elevated in the AD control group.

Apolipoprotein E = Apolipoprotein E level in plasma (ELISA), AlCl3 Alzheimer's model; details: 5 mg/kg, p.o. + AlCl3 (100 mg/kg, i.p.); plasma; Mean ± SEM, n = 6
Source text: as §3

Row | Compound | No of arm entries (Parkinson's disease [1]) | Spontaneous alterations (%) (Parkinson's disease [1]) | catalepsy score at 30 min (Parkinson's disease [2]; 30 min) | catalepsy score at 60 min (Parkinson's disease [2]; 60 min) | catalepsy score at 120 min (Parkinson's disease [2]; 120 min) | Freezing (Parkinson's disease [3]) [s] | Number of central explorations (Parkinson's disease [3]) | Number of squares crossed (Parkinson's disease [3]) | Escape Latency Time (Alzheimer's disease [4]) [s] | IL-1β (IL-1β) | Fibrinogen (Fibrinogen) [ng/mL] | EPM at 16th day Transfer Latency (Alzheimer's disease [5]; 16th day) [s] | EPM at 17th day Transfer Latency (Alzheimer's disease [5]; 17th day) [s] | β-amyloid (β-amyloid (1-42)) [pg/mL] | Apolipoprotein E (Apolipoprotein E) [ng/mL]
1 | C[C@@](Cc1ccc(O)c(O)c1)(NN)C(=O)O [Carbidopa, reference compound] | 12.58 ± 1.04 | 27.31 ± 1.56 | 1.52 ± 0.42 | 1.60 ± 0.70 | 1.45 ± 0.70 | 9.63 ± 0.60 | 20.25 ± 1.03 | 31.80 ± 3.18 | – | – | – | – | – | – | –
2 | COc1cc2c(cc1OC)C(=O)C(CC1CCN(Cc3ccccc3)CC1)C2 (stereo not drawn) [Donepezil, reference compound] | – | – | – | – | – | – | – | – | 26.96 ± 2.58 | 62.16** pg/ml | 16.77 ± 0.053 | 18.57 ± 0.68 | 18.22 ± 0.92 | 8.02 ± 0.043 | 6.96 ± 0.065
